Publication PMC6366974, “The curcumin analog EF24 is a novel senolytic agent” (Aging (Albany NY), 2019)
Residues, ends and D or L forms follow the SMILES beside them. *: point of attachment. Cbz = O=C(OCc1ccccc1)*

How the values were obtained:
[1] = system: WI-38 IR-induced senescent cells (IR-SCs); assay: Cell viability assay (flow cytometry, PI); type: cell-based, human; details: for EC50: Homo sapiens, WI-38 IR-SCs, 72 h, Table 1 screen of curcumin analogs; for selective toxicity against IR-SCs versus NCs (viability): WI-38, 72 h
Protocol: (§1) Human WI-38 fibroblasts (WI-38, Cat. No. CCL-75), human IMR-90 fibroblasts (IMR-90, Cat. No. CCL-186), human umbilical vein endothelial cells (HUVEC, Cat. No. CRL-1730), human renal epithelial cells (HREC, Cat. No. PCS-400-012) and human pre-adipocytes (Cat. No. PCS-210-010) were newly purchased from the American Type Culture Collection (ATCC, Manassas, VA, USA). WI-38 and IMR-90 cells were cultured in complete Dulbecco’s modified Eagle medium (DMEM, Cat. No. 12430054, Thermo Fisher Scientific, Waltham, MA, USA) supplemented with 10% heat-inactivated fetal bovine serum (FBS, Cat. No. S11150H, Atlanta Biologicals, Flowery Branch, GA, USA), 100 U/mL penicillin and 100 µg/mL streptomycin (Pen Strep, Cat. No. 15140122, Thermo Fisher Scientific, Waltham, MA, USA) in a humidified incubator at 37°C and 5% CO2. HUVEC were cultured in EGM-2 BulletKit (Cat. No. CC-3162, Lonza, Basel, Switzerland) containing basal medium supplemented with growth factors, cytokines and other supplements according to the manufacturer’s protocol. HREC were cultured in renal epithelial cell basal medium (Cat. No. PCS-400-030, ATCC, Manassas, VA, USA) supplemented with renal epithelial cell growth kit (Cat. No. PCS400040, ATCC, Manassas, VA, USA). Human pre-adipocytes were cultured in fibroblast basal medium (Cat. No. PCS-201-030, ATCC, Manassas, VA, USA) supplemented with fibroblast growth kit-low serum (Cat. No. PCS201041, ATCC, Manassas, VA, USA). EF24 (Cat. No. E8409) and HO-3867 (Cat. No. S7501) were purchased from Sigma-Aldrich (St. Louis, MO, USA) and Selleckchem (Houston, TX, USA), respectively. DIMC (Cat. No. 10009986) and 2-HBA (Cat. No. 11879) were both purchased from Cayman Chemical (Ann Arbor, MI, USA).
(§2) Three different methods were used for the induction of SCs, including replicative exhaustion, ionizing radiation and ectopic Ras expression as previously described. Briefly, low-passage WI-38 cells (< 25 passages), IMR-90 cells (< 25 passages), HUVEC (< 10 passages), HREC (< 10 passages) and pre-adipocytes (< 4 passages) were used as NCs or for the induction of senescence. To induce replicative senescence (Rep-SCs), WI-38 and IMR-90 fibroblasts, HUVEC, HREC and pre-adipocytes were subcultured until they stopped to divide and became permanently growth arrested senescence after 38 passages (WI-38), 38 passages (IMR-90), 22 passages (HUVEC), 30 passages (HREC) and 10 passages (pre-adipocytes), respectively. To induce SCs by ionizing radiation (IR-SCs) and ectopic expression of Ras (Ras-SCs), WI-38 NCs were treated as previously described.
(§3) Number of viable cells were quantified using flow cytometry as previously described with slight modifications. Specifically, NCs and SCs were incubated with vehicle (0.1% DMSO) or a test compound at indicated concentrations for 72 h. Following dissociation with 0.25% Trypsin-EDTA (Cat. No. 25200056, Thermo Fisher Scientific, Waltham, MA, USA) at 37°C for 5 min, the cells were harvested in 100 µl pre-cooled phosphate buffered saline (PBS, Cat. No. 20012027, Thermo Fisher Scientific, Waltham, MA, USA) containing 2% FBS and 100 ng/mL propidium iodide (PI, P4170, Sigma-Aldrich, St. Louis, MO, USA) and analyzed using flow cytometry (LSR II, BD Biosciences, San Jose, CA, USA). Percentage of viable cells were determined by counting the number of PI negative cells (viable cells) and then calculated as a ratio of control cells treated with vehicle. In addition, dose-response curves were generated for each compound, and the concentration for 50% of maximal effect (EC50 values) was calculated using GraphPad Prism 6.

[2] = system: WI-38 non-senescent cells (NCs); assay: Cell viability assay (flow cytometry, PI); type: cell-based, human; details: Homo sapiens; WI-38 NCs, 72 h, Table 1 screen of curcumin analogs
Protocol: as §1, §2, §3

[3] = design: method as in PMID 20211249; details: cited from earlier work
[4] = system: WI-38 IR-SCs; assay: Combination treatment cell viability and coefficient of drug interaction (CDI); type: cell-based, human; details: 72 h
Protocol: as §3
The data were analyzed by analysis of variance (ANOVA) with GraphPad Prism 6 (GraphPad Software, La Jolla, CA, USA). […] To detect the synergistic senolytic activities of EF24 and ABT263, CDI was calculated as previously described.

[5] = system: platelets; design: method as in PMID 22496272; details: cited from earlier work
[6] = system: Bcl-2 family proteins (Bcl-xl, Mcl-1, Bcl-2); assay: Proteasome inhibition experiment (MG132 pretreatment, western blots); type: cell-based, human; details: 1 µM MG132 1 h prior to EF24 for 72 h
Protocol: After treatment with vehicle or EF24 at 0.5, 1 and 2 µM for 72 h, WI-38 NCs or IR-SCs were harvested in 1.5mL microcentrifuge tubes, and lysed in RIPA buffer with EDTA and EGTA (Cat. No. BP-115DG, Boston BioProducts, Ashland, MA, USA) supplemented with 1% protease inhibitor cocktail (Cat. No. P8340, Sigma-Aldrich, St. Louis, MO, USA) and 1% phosphatase inhibitor cocktail (Cat. No. P0044, Sigma-Aldrich, St. Louis, MO, USA). An equal amount of protein (30 µg/lane) from each cell extract was resolved on a precast gel (Mini-PROTEAN TGX™, Cat. No. 456-1094, Bio-Rad, Hercules, CA, USA). Proteins were blotted to a precut 0.2 µm PVDF membrane (Invitrolon™, Cat. No. LC2002, Life Technologies, Carlsbad, CA, USA) by electrophoresis. The membranes were blocked with 1X TBS-Tween (TBST, Cat. No. J77500, Affymetrix, Santan Clara, CA, USA) containing 5% non-fat dry milk (Cat. No. sc-2324, Santa Cruz Biotechnology, Dallas, TX, USA), and subsequently probed with primary antibodies at a predetermined optimal concentration overnight at 4°C. The primary antibodies including Bcl-xl (Cat. No. 2762), Mcl-1 (Cat. No. 5453), and Bcl-2 (Cat. No. 2872) and β-actin (Cat. No. 4970) were purchased from Cell Signaling Technology (Danvers, MA, USA). […] The blotting membranes were recorded using autoradiography (SRX-101, Konica, Shinjuku, Tokyo, Japan). […]

[7] = system: WI-38 IR-SCs; assay: Apoptosis analysis (Annexin-V/PI flow cytometry); type: cell-based, human; details: 10 µM QVD 4 h prior to 2 µM EF24 for 72 h
Protocol: WI-38 NCs and SCs were treated with vehicle or 10 µM Q-VD-OPh (QVD, Cat. No. S7311, Selleckchem, Houston, TX, USA) for 4 h prior to the addition of vehicle or 2 µM EF24 for 72 h. The suspending cells were first harvested from the culture and then pooled with the adherent cells detached by 0.25% Trypsin-EDTA at 37°C for 5 min in 12 × 75 mm polystyrene round-bottom tubes (Cat. No. 352058, Falcon, Corning, NY, USA) containing complete DMEM medium. The cells were stained with Alexa Fluor 647-Annexin V (1: 50, Cat. No. 640912, BioLegend, San Diego, CA, USA) and PI (10 µg/mL, Cat. No. 421301, BioLegend, San Diego, CA, USA) at room temperature for 30 min. The stained cells were analyzed using a BD LSR II flow cytometer.

[8] = system: senescent human preadipocytes; design: method as in PMID 28273655; details: cited from earlier work

Structure (SMILES) | EC50 [1] | selective toxicity against IR-SCs versus NCs (viability) [1] | EC50 [2] | further results
O=C(C=Cc1ccccc1O)C=Cc1ccccc1O [2-HBA, Bis(2-hydroxybenzylidene)acetone] | 3.85 µM | lesser toxicities to NCs | 9.5 µM | –
C=CCNC1=C2C[C@@H](C)C[C@H](OC)[C@H](O)[C@@H](C)/C=C(\C)[C@H](OC(N)=O)[C@@H](OC)/C=C\C=C(/C)C(=O)NC(=CC1=O)C2=O [17-AAG] | – | – | – | hepatotoxicity [3]: unacceptable hepatotoxicity
CC1(C)CCC(c2ccc(Cl)cc2)=C(CN2CCN(c3ccc(C(=O)NS(=O)(=O)c4ccc(N[C@H](CCN5CCOCC5)CSc5ccccc5)c(S(=O)(=O)C(F)(F)F)c4)cc3)CC2)C1 [ABT263] | – | – | – | cell viability of IR-SCs, agent alone [4]: dose-dependently reduce; on-target toxicity to platelets [5]: dose-limiting thrombocytopenia
COc1ccc(/C=C/C(=O)CC(=O)/C=C/c2ccc(OC)c(OC)c2)cc1OC [DIMC, dimethoxycurcumin] | 15.2 µM | minimal selective toxicity | 23.8 µM | –
CC1(C)C=C(CN2C/C(=C\c3ccc(F)cc3)C(=O)/C(=C/c3ccc(F)cc3)C2)C(C)(C)N1O [HO-3867] | 3.85 µM | lesser toxicities to NCs | 8.3 µM | –
CC(C)C[C@@H](C=O)NC(=O)[C@H](CC(C)C)NC(=O)[C@H](CC(C)C)NC(=O)OCc1ccccc1 [MG132] (Cbz-Leu-Leu-Leu-aldehyde) | – | – | – | effect of MG132 pretreatment on downregulation of Bcl-2 family proteins by EF24 in SCs ([6]; WI-38 IR-SCs): abrogated; effect of MG132 pretreatment on expression of Bcl-2 family proteins in NCs ([6]; WI-38 NCs): no significant effect
CC(C)[C@H](NC(=O)c1ccc2ccccc2n1)C(=O)N[C@@H](CC(=O)O)C(=O)COc1c(F)cccc1F [QVD] | – | – | – | effect of QVD pretreatment on EF24 induction of SCs apoptosis [7]: completely blocked
O=c1c(O)c(-c2ccc(O)c(O)c2)oc2cc(O)ccc12 [fisetin] | – | – | – | senolytic activity against senescent human preadipocytes [8]: lacks senolytic activity
COC1=C2C[C@@H](C)C[C@H](OC)[C@H](O)[C@@H](C)/C=C(\C)[C@H](OC(N)=O)[C@@H](OC)/C=C\C=C(/C)C(=O)NC(=CC1=O)C2=O [geldanamycin] | – | – | – | hepatotoxicity [3]: unacceptable hepatotoxicity
